Reference: the supplement of paper PMC4862054
Where “and” joins values, the source holds several entries; their conditions need not be identical. Identical values can stand only once.

Assays:
Conditions in all cases: incubation time: 72 h
DU-4475 [1] = assay: normalised viability (% of control), CellTiter-Blue; higher = more viable cells (about 100 = DMSO control)
Method in brief: (§1)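 Breast cancer cell lines in 20 µl suspension were seeded onto 384-well plates pre-loaded with compound dissolved in 5 µl medium, then incubated 72 h. CellTiter-Blue reagent (2.5 µl) was added for 2 h at 37 °C and fluorescence read at 560/590 nm. Each plate was normalised to vehicle (100) and a positive kill control (0), with Z'-factor quality control. The value is normalised viability at one listed concentration of the series.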

MDA-MB-453 [2] = assay: as above
Method in brief: as §1

CAL-120 [3] = assay: as above
Method in brief: as §1

HCC1143 [4] = assay: drug sensitivity score (DSS), CellTox Green (DSS (AUC-based score)); higher = stronger drug effect (viability inhibition or cytotoxicity); extreme values may be limits of the assay
Method in brief: (§2)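 Normalisation on every plate relied on 0.1 % DMSO and a positive kill control. The plates, 384-well format, held compound at 5 concentrations 10-fold apart across a compound-specific 10,000-fold range, and breast cancer cell lines in 20 µl suspension were incubated on them for 72 h before CellTox Green and then CellTiter-Glo readings. The drug sensitivity score derives from the area under the fitted dose-response curve.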

CAL-51 [5] = assay: as above
Method in brief: as §2

MDA-MB-453 [6] = assay: as above
Method in brief: as §2

HCC1143 [7] = assay: normalised viability (% of control), CellTiter-Blue; higher = more viable cells (about 100 = DMSO control)
Method in brief: as §1

CAL-51 [8] = assay: as above
Method in brief: as §1

HCC1937 = assay: as above
Method in brief: as §1

MDA-MB-436 = assay: as above
Method in brief: as §1

MDA-MB-231 = assay: as above
Method in brief: as §1

DU-4475 [9] = assay: as above; remark: listed apart in the source
Method in brief: as §1

BT-549 = assay: as above
Method in brief: as §1

Hs578T = assay: as above
Method in brief: as §1

SK-BR-3 = assay: as above
Method in brief: as §1

CAL-85-1 = assay: as above
Method in brief: as §1

MDA-MB-453 [10] = assay: as above; remark: listed apart in the source
Method in brief: as §1

BT-474 = assay: as above
Method in brief: as §1

HCC1599 = assay: as above
Method in brief: as §1

HDQ-P1 = assay: as above
Method in brief: as §1

MFM-223 = assay: as above
Method in brief: as §1

CAL-120 [11] = assay: as above; remark: listed apart in the source
Method in brief: as §1

MDA-MB-468 = assay: as above
Method in brief: as §1

CAL-148 = assay: as above
Method in brief: as §1

CO[C@@H](C(=O)N1Cc2[nH]nc(NC(=O)c3ccc(N4CCN(C)CC4)cc3)c2C1)c1ccccc1 [Danusertib]
Conditions | normalised viability [%]
BT-474, 10 nM | 105
BT-474, 1000 nM | 88.3
BT-474, 10000 nM | 96.5
BT-549, 10 nM | 97.9
BT-549, 1000 nM | 64.3
BT-549, 10000 nM | 16.2
CAL-51 [8], 3 nM | 116
CAL-51 [8], 30 nM | 116
CAL-51 [8], 100 nM | 74.3
CAL-85-1, 3 nM | 85.8
CAL-85-1, 30 nM | 82.8
CAL-85-1, 100 nM | 76.2
CAL-120 [3], 100 nM | 64.8
CAL-120 [11], 10 nM | 80.7
CAL-120 [11], 1000 nM | 46
CAL-120 [11], 10000 nM | 8.24
CAL-148, 3 nM | 92.5
CAL-148, 30 nM | 85.5
CAL-148, 100 nM | 29.7
DU-4475 [1], 10 nM | 91
DU-4475 [9], 3 nM | 89.8
DU-4475 [9], 30 nM | 88.2
DU-4475 [9], 100 nM | 70.6
HCC1143 [7], 10 nM | 78.2
HCC1143 [7], 1000 nM | 61.8
HCC1143 [7], 10000 nM | 31.3
HCC1599, 10 nM | 98.4
HCC1599, 1000 nM | 74.7
HCC1599, 10000 nM | 73.1
HCC1937, 10 nM | 99.8
HCC1937, 1000 nM | 41.7
HCC1937, 10000 nM | 41
HDQ-P1, 3 nM | 89.9
HDQ-P1, 30 nM | 90.7
HDQ-P1, 100 nM | 72.4
Hs578T, 10 nM | 95.4
Hs578T, 1000 nM | 59.3
Hs578T, 10000 nM | 23.9
MDA-MB-231, 10 nM | 87.9
MDA-MB-231, 1000 nM | 56.7
MDA-MB-231, 10000 nM | 19.2
MDA-MB-436, 10 nM | 89.7
MDA-MB-436, 1000 nM | 72
MDA-MB-436, 10000 nM | 60.9
MDA-MB-453 [2], 10 nM | 79.6
MDA-MB-453 [10], 3 nM | 101
MDA-MB-453 [10], 30 nM | 62.1
MDA-MB-453 [10], 100 nM | 47.9
MDA-MB-468, 10 nM | 107
MDA-MB-468, 1000 nM | 36.2
MDA-MB-468, 10000 nM | 48.1
MFM-223, 10 nM | 71.3
MFM-223, 1000 nM | 36.9
MFM-223, 10000 nM | 55.4
SK-BR-3, 10 nM | 81
SK-BR-3, 1000 nM | 73.5
SK-BR-3, 10000 nM | 77

Conditions | drug sensitivity score
CAL-51 [5] | 13.8
HCC1143 [4] | 0
MDA-MB-453 [6] | 0

Cc1nc(Nc2ncc(C(=O)Nc3c(C)cccc3Cl)s2)cc(N2CCN(CCO)CC2)n1 [Dasatinib]
Conditions | normalised viability
BT-474, 1 nM | 126% and 102%
BT-474, 100 nM | 113% and 96.2%
BT-474, 1000 nM | 97.9% and 95.4%
BT-549, 1 nM | 102% and 95.4%
BT-549, 100 nM | 62.5% and 51.1%
BT-549, 1000 nM | 38.9% and 35.7%
CAL-51 [8], 0.3 nM | 106% and 112%
CAL-51 [8], 3 nM | 92.3% and 93.9%
CAL-51 [8], 10 nM | 79.3% and 84.4%
CAL-85-1, 0.3 nM | 97.8% and 95.5%
CAL-85-1, 3 nM | 84.2% and 87.7%
CAL-85-1, 10 nM | 87.9% and 92.9%
CAL-120 [3], 10 nM | 93.2% and 80.5%
CAL-120 [11], 1 nM | 93.5% and 85.7%
CAL-120 [11], 100 nM | 46% and 38.3%
CAL-120 [11], 1000 nM | 26.6% and 22.4%
CAL-148, 0.3 nM | 97.9% and 80.8%
CAL-148, 3 nM | 110% and 85.8%
CAL-148, 10 nM | 98.1% and 88.5%
DU-4475 [1], 1 nM | 105% and 111%
DU-4475 [9], 0.3 nM | 107% and 83.4%
DU-4475 [9], 3 nM | 101% and 97.1%
DU-4475 [9], 10 nM | 101% and 95.7%
HCC1143 [7], 1 nM | 100% and 78.6%
HCC1143 [7], 100 nM | 65.4% and 55%
HCC1143 [7], 1000 nM | 48.9% and 37.6%
HCC1599, 1 nM | 109% and 107%
HCC1599, 100 nM | 103% and 114%
HCC1599, 1000 nM | 101% and 100%
HCC1937, 1 nM | 95.7% and 92.3%
HCC1937, 100 nM | 53.9% and 78%
HDQ-P1, 0.3 nM | 106% and 111%
HDQ-P1, 3 nM | 83.8% and 84.8%
Hs578T, 1 nM | 108% and 102%
Hs578T, 100 nM | 55.5% and 45.7%
Hs578T, 1000 nM | 27% and 24.8%
MDA-MB-231, 1 nM | 87.5% and 81.5%
MDA-MB-231, 100 nM | 53% and 40.2%
MDA-MB-231, 1000 nM | 40.5% and 34%
MDA-MB-436, 1 nM | 91.2% and 105%
MDA-MB-436, 100 nM | 64.8% and 56.8%
MDA-MB-436, 1000 nM | 40.4% and 30.4%
MDA-MB-453 [2], 1 nM | 100%
MDA-MB-453 [10], 0.3 nM | 121% and 115%
MDA-MB-453 [10], 3 nM | 96.6% and 99.2%
MDA-MB-453 [10], 10 nM | 97.7% and 104%
MDA-MB-468, 1 nM | 114% and 109%
MDA-MB-468, 100 nM | 105% and 100%
MDA-MB-468, 1000 nM | 94.6% and 90.4%
MFM-223, 1 nM | 96.2% and 96.8%
MFM-223, 100 nM | 84.3% and 90.4%
MFM-223, 1000 nM | 70.1% and 72%
SK-BR-3, 1 nM | 109% and 92.9%
SK-BR-3, 100 nM | 112% and 98.6%

Conditions | drug sensitivity score
CAL-51 [5] | 6.25
HCC1143 [4] | 0
MDA-MB-453 [6] | 0
